These results are taken from US12139508B2, “Steroid derivative regulators, method for preparing the same, and uses thereof” (JIANGSU HANSOH PHARMACEUTICAL GROUP CO., LTD., priority 2018, dated 2024).

pIC50: −log10 of the molar value.

What is called pIC50 is the IC50 on a negative log10 scale, so that one unit is a factor of ten.

In the assay the target is GABA-A receptor. The assay can be described thus: 35S-TBPS binding assay (GABAA receptor binding ability test). The arrangement: species or system Sprague-Dawley rat. The note with it: rat cerebral cortex cell membrane, 5 μM GABA, 2 nM 35S-TBPS; read-out: 35S-TBPS bindng test: IC50 on inhibiting the TBPS binding activity. As for the experimental part:
1.2 Experimental Procedures 1.2.1 Extraction of Cerebral Cortex Cell Membrane:
1. The cerebral cortex of male Sprague-Dawley rat was isolated.
2. A pre-chilled 0.32 M sucrose solution (one tablet of protease inhibitor was added per 100 ml) was added to the cerebral cortex (the volume of sucrose solution was 10 times the volume of the cerebral cortex). The mixture was crushed with a 50 mL glass tissue homogenizer in batches and mixed well.
3. The mixture was centrifuged at 1500 g, 4° C. for 10 minutes, and the supernatant was collected.
4. The mixture was centrifuged at 20000 g, 4° C. for 30 minutes, and the supernatant was discarded.
5. The precipitate was resuspended with the pre-chilled phosphate buffer saline (PBS) (one tablet of protease inhibitor was added per 100 ml). An average of 4 ml of PBS was added per rat, and the mixture was mixed well by a glass tissue homogenizer.
6. The mixture was centrifuged at 10000 g, 4° C. for 10 minutes, and the supernatant was discarded.
7. Steps 5 and 6 were repeated three times.
8. Finally, the precipitate was resuspended with 4 volumes of PBS. The resulting solution was dispensed, frozen in liquid nitrogen, and stored at −80° C.
9. The protein concentration was measured by the bicinchoninic acid (BCA) method.
1.2.2 ^35S-TBPS Binding Assay
1. 230 μL of PBS was added to each well of a well plate with 1.1 ml volume.
2. 60 μL of the cerebral cortex cell membrane (5 μg/μL) solution was added to each well, and the mixture was mixed well.
3. The test compound (3 μL per well) was added, and the plate was incubated at 25° C. for 5 minutes. The DMSO concentration was 1%. The initial compound concentration was 1 μM, and a 3-fold dilution in gradient was carried out to obtain a total of 8 gradients and 2 replicates. 1% DMSO was used as a negative control, and 10 μM P026-2 was used as a positive control.
4. GABA was added at a final concentration of 5 μM, and incubated at 25° C. for 5 minutes. 1 mM GABA solution was formulated, and 1.5 μL of the solution was added to each well.
5. ^35S-TBPS was added at a final concentration of 2 nM. The concentration of isotope mother solution was 9.7 μM. After dilution with PBS for 100 times, 6 μL of the diluted isotope solution was added to each well.
6. The plate was incubated at 4° C. for 20 hours.
7. The FilterMate GF/C plate was pre-treated with 0.5% PEI, and incubated at 4° C. for 1 hour.
8. The FilterMate GF/C plate was washed with Universal Harvester twice, 50 ml PBS each time.
9. The reaction solution was transferred to the GF/C plate, and each well was washed 4 times with 900 μL of PBS.
10. The washed GF/C plate was placed at 55° C. and dried for 10 minutes.
11. 40 μL of scintillation solution was added to each well, and the CPM value was read with TopCount.
1.2.3 Experimental Data Processing Method:
In the experiment, the CPM (counts per minute) value was read with TopCount. According to the readings of the High control (DMSO) and the Low control ([…] of the positive compound) experimental groups, the […] inhibition was calculated based on the following formula: % Inhibition=100×(CPMHigh control−CPMSample)/(CPMHigh control−CPMLow control)
The IC50 of the compound was calculated according to the following 4-parameter nonlinear logic formula: Y=Bottom+(Top−Bottom)/(1+10^((Log IC50−X)*Hill Slope)),
wherein: • X represents the log of compound concentration, • Y represents the 0 Inhibition.
The effect of the compound of the present invention on the TBPS binding activity was determined by the above test, and the measured IC50 values are shown in Table 1.
As to `Cc1c(C#N)cnn1CC(=O)[C@H]1[C@H]2C[C@H]2[C@H]2[C@@H]3CC[C@@H]4C[C@](C)(O)CC[C@@H]4[C@H]3CC[C@@]21C` [Example 37B, 1-(2-((2R,4aS,4bR,6aS,7S,7aS,8aR,8bR,8cR,10aR)-2-Hydroxy-2,6a-dimethyloctadecahydrocyclopropa[4,5]cyclopenta[1,2-a]phenanthren-7-yl)-2-oxoethyl)-5-methyl-1H-pyrazole-4-carbonitrile], the pIC50 is 7.81.
As to `C[C@@]1(O)CC[C@H]2[C@H](CC[C@@H]3[C@@H]2CC[C@@]2(C)[C@H]3[C@@H]3C[C@@H]3[C@@H]2C(=O)Cn2cc(C(=O)N3CC(F)(F)C3)cn2)C1` [Example 52], the pIC50 is 7.19.
With `C[C@@]1(O)CC[C@H]2[C@H](CC[C@@H]3[C@@H]2CC[C@@]2(C)[C@H]3[C@@H]3C[C@@H]3[C@@H]2C(=O)COc2ccc(F)cc2C#N)C1` [Example 126, 5-Fluoro-2-(2-((2R,4aS,4bR,6aS,7S,7aS,8aR,8bR,8cR,10aR)-2-hydroxy-2,6a-dimethyloctadecahydrocyclopropa[4,5]cyclopenta[1,2-a]phenanthren-7-yl)-2-oxoethoxy)benzonitrile], the pIC50 is 8.31.
For `Cc1nnnn1CC(=O)[C@H]1[C@H]2C[C@H]2[C@H]2[C@@H]3CC[C@@H]4C[C@](C)(O)CC[C@@H]4[C@H]3CC[C@@]21C` [Example 101, 1-((2R,4aS,4bR,6aS,7S,7aS,8aR,8bR,8cR,10aR)-2-Hydroxy-2,6a-dimethyloctadecahydrocyclopropa[4,5]cyclopenta[1,2-a]phenanthren-7-yl)-2-(5-methyl-1H-tetrazol-1-yl)ethan-1-one], the pIC50 is 7.94.
On to `CC[C@@H]1C[C@H](C(=O)Cn2nnc(C)n2)[C@@]2(C)CC[C@H]3[C@@H](CC[C@@H]4C[C@](C)(O)CC[C@@H]43)[C@H]12` [Example 139, 1-((3R,5R,8R,9R,10S,13S,14S,15R,17S)-15-Ethyl-3-hydroxy-3,13-dimethylhexadecahydro-1H-cyclopenta[a]phenanthren-17-yl)-2-(5-methyl-2H-tetrazol-2-yl)ethan-1-one], for which the pIC50 is 7.57.
On to `C[C@@]1(O)CC[C@H]2[C@H](CC[C@@H]3[C@@H]2CC[C@@]2(C)[C@H]3[C@H](C3CC3)C[C@@H]2C(=O)COc2cnc(C(F)(F)F)nc2)C1` [Example 151, 1-((3R,5R,8R,9R,10S,13S,14S,15S,17S)-15-Cyclopropyl-3-hydroxy-3,13-dimethylhexadecahydro-1H-cyclopenta[a]phenanthren-17-yl)-2-((2-(trifluoromethyl)pyrimidin-5-yl)oxy)ethan-1-one], for which the negative logarithm of the IC50 (pIC50) is 7.58.
Regarding `C[C@@]1(O)CC[C@H]2[C@H](CC[C@@H]3[C@@H]2CC[C@@]2(C)[C@H]3[C@H](C3CC3)C[C@@H]2C(=O)Cn2ccc(C(F)(F)F)n2)C1` [Example 144, 1-((3R,5R,8R,9R,10S,13S,14S,15S,17S)-15-Cyclopropyl-3-hydroxy-3,13-dimethylhexadecahydro-1H-cyclopenta[a]phenanthren-17-yl)-2-(3-(trifluoromethyl)-1H-pyrazol-1-yl)ethan-1-one], the pIC50 was 7.73.
Turning to `C[C@@]1(O)CC[C@H]2[C@H](CC[C@@H]3[C@@H]2CC[C@@]2(C)[C@H]3[C@@H]3C[C@@H]3[C@@H]2C(=O)Cn2ccnn2)C1` [Example 8, 1-((2R,4aS,4bR,6aS,7S,7aS,8aR,8bR,8cR,10aR)-2-Hydroxy-2,6a-dimethyloctadecahydrocyclopropa[4,5]cyclopenta[1,2-a]phenanthren-7-yl)-2-(1H-1,2,3-triazol-1-yl)ethan-1-one], the pIC50 was 7.38.
`CC[C@@H]1C[C@H](C(=O)Cn2ncnn2)[C@@]2(C)CC[C@H]3[C@@H](CC[C@@H]4C[C@](C)(O)CC[C@@H]43)[C@H]12` [Example 149, 1-((3R,5R,8R,9R,10S,13S,14S,15R,17S)-15-Ethyl-3-hydroxy-3,13-dimethylhexadecahydro-1H-cyclopenta[a]phenanthren-17-yl)-2-(2H-tetrazol-2-yl)ethan-1-one]: the pIC50 is 7.59.
